Patent US20250332178A1, “METHODS OF TREATING MYCOBACTERIAL INFECTIONS USING TETRACYCLINE COMPOUNDS” (priority 2018, published 2025)
Converted amounts (≈) assume the structure as drawn.

Tests used:
M. intracellulare = assay: MIC (CLSI broth dilution), slow-growing NTM isolates; format: cell-based
[1] = 52 patients, M. abscessus and M. chelonae infections; Wallace et al.; cited from earlier work
[2] = daily; previously shown (Bax et al.); cited from earlier work
[3] = test system: M. abscessus subsp. abscessus CIP 104536; format: cell-based; settings: at 4 mg/L, after 7 days of drug exposure; subculture plates 16 mg/L

Structure (SMILES)	MIC (M. intracellulare; isolate 6, MAC)	MIC (M. intracellulare; isolate 7, MAC)	MIC (M. intracellulare; isolate 8, MAC)	MIC (M. intracellulare; isolate 9, MAC)	MIC (M. intracellulare; isolate 10, MAC)	dose reductions due to nausea, vomiting or anorexia [1]	decline in concentration [2]	selection of drug resistance above the spontaneous mutation frequency [3]
NCC[C@H](O)C(=O)N[C@@H]1C[C@H](N)[C@@H](O[C@H]2O[C@H](CN)[C@@H](O)[C@H](O)[C@H]2O)[C@H](O)[C@H]1O[C@H]1O[C@H](CO)[C@@H](O)[C@H](N)[C@H]1O [Amikacin, amikacin]	8 µg/mL (≈ 13.7 µM)	8 µg/mL (≈ 13.7 µM)	16 µg/mL (≈ 27.3 µM)	16 µg/mL (≈ 27.3 µM)	16 µg/mL (≈ 27.3 µM)	–	–	–
CN(C)c1cc(NC(=O)CNC(C)(C)C)c(O)c2c1C[C@H]1C[C@H]3[C@H](N(C)C)C(O)=C(C(N)=O)C(=O)[C@@]3(O)C(O)=C1C2=O [Tigecycline, tigecycline]	–	–	–	–	–	Approximately half of the patients had dose reductions	80%	0.6%
